# Assay results: publication PMC11547735, “Effect of Oral Administration of Collagen Peptide OG-5 on Advanced Atherosclerosis Development in ApoE^−/− Mice” (Nutrients, 2024)
# Read-outs that look alike come from different tables or passages of the source. Square brackets hold non-standard residues; d marks the D form. Peptide text beside a SMILES is read from it. Hyp = O=C(O)[C@@H]1C[C@@H](O)CN1
# How the values were obtained:
# Caco-2 cell monolayers [1] = settings: results reported for other peptides; cited from earlier work
# From the text: According to the previous study, a Papp value higher than 1.0 × 10^−5 cm ...
# [2] = cited from earlier work
# From the text: The application of peptides is usually limited for the short half-life and is commonly due to fast renal clearance as well as enzymatic degradation, including aminopeptidases, carboxypeptidases, dipeptidases and endopeptidases occurring during systemic circulation.
# [3] = Body weight and organ index of ApoE−/− mice after oral administration; assay type: in vivo, mouse; settings: n = 8
# Description: The animal study was performed in compliance with the requirements of the Guide for the Care and Use of Laboratory Animals (NIH publication No.86-23, revised 1996) and was approved by the Welfare Committee of Pony Testing International Group Co., Ltd., Beijing, China (PONY-2021-FL-12, approval date: 5 December 2021). The 7-week-old male ApoE^−/− mice and C57BL/6J mice were purchased from Beijing Vital River Laboratory Animal Technology Co., Ltd. (Beijing, China). The mice were acclimatized for a period of one week in a pathogen-free environment, maintained under a controlled 12-h light/dark cycle at a constant temperature of 21 °C. During this period, they had unrestricted access to a standard rodent chow diet and tap water. Following acclimatization, the mice were assigned to experimental groups randomly, with each group consisting of eight mice.
# (§1) The establishment of the AS model in ApoE^−/− mice was divided into two stages. At I stage, 8-week-old male ApoE^−/− mice were fed a Western-type diet (42% fat; 21% anhydrous milk fat, 0.15% cholesterol) for 16 weeks to establish an early AS model. At II stage, a high-fat and high-cholesterol diet (containing 5% cholesterol, 0.5% sodium cholate, 20% fat) was replaced at the 17th week to accelerate the progress of AS till the 24th week. The C57BL6/J mice were utilized as the normal control group and maintained on a standard maintenance diet (20% protein; 5% fat; 50% carbohydrate; 5% cellulose; 10% vitamins and minerals). The mice were subsequently randomized into 4 groups, each consisting of 8 animals: (i) M Group (0.9% saline for ApoE^−/− mice), (ii) Sustainable OG-5 intervention group (50 mg/kg bw) during two stages, (iii) OG-5 treatment group (150 mg/kg bw), and (iv) aspirin group (25 mg/kg bw) at II stage. The OG-5 and aspirin were orally administered to mice every other day. Animals that were not subjected to any treatment and maintained on a normal diet served as the control group (N group). The body weight was monitored every week.
# (§2) After 24-week treatment, the mice were fasted overnight and sacrificed. Blood was collected to stand at room temperature for 2 h, and the serum was separated by centrifugation for further analysis.
# ApoE^−/− mice [4] = assay: Serum lipid levels in ApoE−/− mice (advanced atherosclerosis model); assay type: in vivo, mouse; settings: aspirin 25 mg/kg bw oral every other day at stage II, n = 8
# From the text: as §1, §2
# Caco-2 cell monolayers [5] = assay: Transport across Caco-2 cell monolayers; assay type: in vitro ADME, human; settings: Caco-2 monolayers 21 days, TEER > 800 Ω·cm^2, apical to basolateral, HBSS, pre-incubation 1 h 37 °C, incubation 2 h, HPLC
# Description: The Caco-2 cell culture and the establishment of the transepithelial transport model were according to the previous study. The Caco-2 cells (10–20 passages) were grown in DMEM supplemented with 10% FBS and 1% penicillin streptomycin at 37 °C.
# For the establishment of the transepithelial transport model, Caco-2 cells were seeded onto permeable polyester inserts (12 mm diameter, with a growth surface area of 1.12 cm^2 and a pore size of 0.4 μm, sourced from Costar, Corning, NY, USA) placed in 12-well transwell plates at a density of 1 × 10^5 cells per insert. Over a period of 21 days, the cell culture medium was replaced cautiously every two days to facilitate the differentiation of Caco-2 cells into fully confluent monolayers. […] The Caco-2 cell monolayers were delicately rinsed twice with HBSS and subsequently pre-incubated at 37 °C for 1 h. […]
# Transport percentage (%) is calculated by the following equation: (1) Transport percentage %=transported amount of peptide in basolateral side/intial amount of peptide in apical side×100
# The apparent permeability coefficient (Papp, cm/s) was calculated as follows:(2) Papp=dQ/dt×1/A×1/C0 where dQ/dt is the permeability rate (mmol/s); A is the area of the membrane (cm^2); C0 is the initial peptide concentration in the donor chamber (mM).
# [6] = Peptide stability in plasma; assay type: in vitro ADME; settings: rat plasma (heparinized), 0.5 mM, 37 °C, 8 h incubation, 3 kDa ultrafiltration, HPLC-UV peak area
# Description: The assessment of peptide stability in plasma was conducted with modifications to a previously described method. Briefly, blood samples were collected in heparinized tubes and immediately centrifuged to separate the plasma supernatant. Subsequently, OG-5 was added to achieve a final concentration of 0.5 mM, and the mixture was incubated at 37 °C. At specified time points (0, 0.5, 1.0, 2.0, 4.0, and 8.0 h), the mixture was centrifuged using a 3 kDa ultrafiltration centrifugal tube to separate the filtrate. The filtrate was then analyzed using a Shimadzu LC-15 HPLC system, equipped with an SPD-15 ultraviolet detector (Kyoto, Japan). The HPLC analysis conditions included an injection volume of 10 μL, a flow rate of 1 mL/min, and a gradient elution program: 0–25 min, 0–25% acetonitrile (buffer B); 25–30 min, 25–35% buffer B; 30–35 min, 35–100% buffer B. The quantity of peptide OG-5 in the plasma was determined based on its peak area.
# [7] = In vivo absorption experiment on rats; settings: rat
# Description: The peptide absorption in vivo was conducted as previously described. The rats were orally administered with peptide OG-5 (1.0 g/kg bw). Blood samples were obtained via a minimal incision at the tail tip at 0, 0.5, 1, and 2 h after oral administration. The collected blood was transferred into 5 kDa ultrafiltration centrifugal tube, and the filtrate was collected for HPLC analysis. The elution program was conducted as follows: 0–5 min, 10–15% buffer B (acetonitrile); 5–20 min, 15–25% buffer B; 20–25 min, 25–100% buffer B.
# ApoE^−/− mice [8] = assay: Bleeding time after long-term oral administration (Figure S1); assay type: in vivo, mouse; settings: n = 8
# From the text: The following supporting information can be downloaded at: https://www.mdpi.com/article/10.3390/nu16213752/s1, Figure S1: Bleeding time after oral administration of peptide OG-5 in ApoE^−/− mice (n = 8).
# [9] = aspirin 25 mg/kg bw oral every other day at stage II
# [10] = OG-5 50 mg/kg bw oral every other day, stages I and II
# [11] = OG-5 150 mg/kg bw oral every other day at stage II
# [12] = long-term oral 150 mg/kg bw, bleeding time
molecule,measurement,setting,value
"RVPSL [literature antihypertensive peptide, ovotransferrin 328–332, compared for Caco-2 Papp]",Papp,Caco-2 cell monolayers [1],7e-06 cm/s
PGEOG,half-life in plasma,[2],4.3 h
"CC(=O)Oc1ccccc1C(=O)O [Aspirin, reference compound]",Final Body weight,[3]; [9],28.8 ± 1.7 g
same,Initial Body weight,[3]; [9],27.7 ± 2.8 g
same,Spleen index,[3]; [9],4.99 ± 2.64 mg/g bw
same,Thymus index,[3]; [9],0.83 ± 0.12 mg/g bw
same,HDL-C,ApoE^−/− mice [4],0.64 ± 0.37 mM
same,LDL-C,ApoE^−/− mice [4],9.55 ± 1.89 mM
same,TC,ApoE^−/− mice [4],41.09 ± 6.05 mM
same,TG,ApoE^−/− mice [4],3.43 ± 0.96 mM
"O=C(O)CC[C@H](NC(=O)CNC(=O)[C@@H]1C[C@@H](O)CN1)C(=O)N[C@@H](Cc1ccccc1)C(=O)NCC(=O)O [OG-5, OGEFG] (H-[Hyp]GEFG-OH)",Initial Body weight,"[3]; OG-5 50 mg/kg bw oral every other day, stages I and II (24 weeks), mean ± standard",24.5 ± 1.0 g
same,Final Body weight,"[3]; OG-5 50 mg/kg bw oral every other day, stages I and II (24 weeks)",27.7 ± 2.2 g
same,Spleen index,[3]; [10],4.16 ± 0.99 mg/g bw
same,Thymus index,[3]; [10],0.69 ± 0.15 mg/g bw
same,Initial Body weight,[3]; OG-5 150 mg/kg bw oral every other day at stage II (weeks 17-24),27.8 ± 2.5 g
same,Final Body weight,[3]; [11],28.9 ± 2.0 g
same,Spleen index,[3]; [11],4.80 ± 2.13 mg/g bw
same,Thymus index,[3]; [11],0.79 ± 0.13 mg/g bw
same,Papp,Caco-2 cell monolayers [5],1.8e-05 cm/s
same,Transport percentage,Caco-2 cell monolayers [5]; spread printed ± 0.57,14.40%
same,peptide remaining intact in plasma,[6],> 70%
same,remaining at 8 h,[6]; read-out: peptide remaining intact in plasma,78.2%
same,Tmax,"[7]; po, 1 g/kg",2 h
same,Cmax,"[7]; rats, oral 1.0 g/kg bw, tail blood at 0, 0.5, 1, 2 h, 5 kDa ultrafiltration, HPLC, read-out: peak plasma concentration",77.8 µM
same,bleeding risk compared to aspirin,ApoE^−/− mice [8]; [12],lower bleeding risk
same,bleeding risk compared with M model,ApoE^−/− mice [8]; [12],a little bleeding risk
same,bleeding risk,ApoE^−/− mice [8]; low-dose sustainable intervention 50 mg/kg bw from stage I,without bleeding risks
TNGIIR,Papp,Caco-2 cell monolayers [1],4.9e-06 cm/s
